According to patent publication US6525001B1, “Substituted pyrimidine and pyridine herbicides” (Mid-American Commercialization Corporation, priority 1997, dated 2003):

How the values were obtained:
Format in all cases: in vivo
[1] = test system: pigweed (Amaranthus retroflexus); assay: Test B pre-/postemergence; set-up: key: 0 is no effect; 10 is complete control
Text: (§1) Seeds of bedstraw (Galium aparine), blackgrass (Alopecurus myosuroides), broadleaf signalgrass (Brachiaria decumbens), cocklebur (Xanthium strumarium), corn (Zea mays), crabgrass (Digitaria sanguinalis), giant foxtail (Setaria faberii), lambsquarters (Chenopodium album), momingglory (Ipomoea hederacea), pigweed (Amaranthus retroflexus), rape (Brassica napus), soybean (Glycine max), sugar beet (Beta vulgaris), velvetleaf (Abutilon theophrasti), wheat (Triticum aestivum), wild oat (Avena fatua) and purple nutsedge (Cyperus rotundus) tubers were planted and treated preemergence with test chemicals formulated in a non-phytotoxic solvent mixture which included a surfactant.
(§2) At the same time, these crop and weed species were also treated with postemergence applications of test chemicals formulated in the same manner. Plants ranged in height from 2 to 18 cm (1- to 4-leaf stage) for postemergence treatments. Plant species in the flood test consisted of rice (Oryza sativa), smallflower flatsedge (Cyperus difformis), duck salad (Heteranthera limosa) and bamyardgrass (Echinochloa crus-galli) grown to the 2-leaf stage for testing. Treated plants and controls were maintained in a greenhouse for twelve to sixteen days, after which all species were compared to controls and visually evaluated. Plant response ratings, summarized in Table B, are based on a scale of 0 to 10 where 0 is no effect and 10 is complete control. A dash (−) response means no test result.

[2] = test system: bedstraw (Galium aparine); assay: Test B pre-/postemergence; set-up: key: 0 is no effect; 10 is complete control; details: for Bedstraw plant response rating: Preemergence
Text: as §1, §2

[3] = test system: broadleaf signalgrass (Brachiaria decumbens); assay: Test B pre-/postemergence; set-up: key: 0 is no effect; 10 is complete control; details: for B. signalgrass plant response rating: Preemergence
Text: as §1, §2

rape (Brassica napus) = assay: Test B pre-/postemergence; set-up: key: 0 is no effect; 10 is complete control
Text: as §1, §2

[4] = test system: sugar beet (Beta vulgaris); assay: Test B pre-/postemergence; set-up: key: 0 is no effect; 10 is complete control
Text: as §1, §2

[5] = test system: momingglory (Ipomoea hederacea); assay: Test B pre-/postemergence; set-up: key: 0 is no effect; 10 is complete control
Text: as §1, §2

[6] = test system: wheat (Triticum aestivum); assay: Test B pre-/postemergence; set-up: key: 0 is no effect; 10 is complete control
Text: as §1, §2

[7] = test system: cocklebur (Xanthium strumarium); assay: Test B pre-/postemergence; set-up: key: 0 is no effect; 10 is complete control; details: for Cocklebur plant response rating: Preemergence
Text: as §1, §2

[8] = test system: blackgrass (Alopecurus myosuroides); assay: Test B pre-/postemergence; set-up: key: 0 is no effect; 10 is complete control; details: for Blackgrass plant response rating: Preemergence
Text: as §1, §2

[9] = test system: velvetleaf (Abutilon theophrasti); assay: Test B pre-/postemergence; set-up: key: 0 is no effect; 10 is complete control
Text: as §1, §2

wild oat (Avena fatua) = assay: Test B pre-/postemergence; set-up: key: 0 is no effect; 10 is complete control
Text: as §1, §2

[10] = test system: giant foxtail (Setaria faberii); assay: Test B pre-/postemergence; set-up: key: 0 is no effect; 10 is complete control
Text: as §1, §2

soybean (Glycine max) = assay: Test B pre-/postemergence; set-up: key: 0 is no effect; 10 is complete control
Text: as §1, §2

corn (Zea mays) = assay: Test B pre-/postemergence; set-up: key: 0 is no effect; 10 is complete control; details: for Corn plant response rating: Preemergence
Text: as §1, §2

[11] = test system: crabgrass (Digitaria sanguinalis); assay: Test B pre-/postemergence; set-up: key: 0 is no effect; 10 is complete control; details: for Crabgrass plant response rating: Preemergence
Text: as §1, §2

rice (Oryza sativa) = assay: Test B flood test
Method: as §2

[12] = test system: duck salad (Heteranthera limosa); assay: Test B flood test
Method: as §2

[13] = test system: smallflower flatsedge (Cyperus difformis); assay: Test B flood test
Method: as §2

[14] = test system: bamyardgrass (Echinochloa crus-galli); assay: Test B flood test
Method: as §2

[15] = Rate 250 g/ha, Postemergence (so in the source)
[16] = Rate 62 g/ha, Postemergence (flood test)
[17] = Rate 125 g/ha, Postemergence section (flood test species)
[18] = Rate 250 g/ha, Postemergence (flood test species)
[19] = Rate 125 g/ha, Postemergence, flood test

Structure (SMILES): CCc1cnc(-n2ccc(C(F)(F)F)n2)nc1Cc1cccc(OC(F)(F)F)c1 [Compound 47]
- Plant response rating, Redroot pigweed ([1]; Rate 62 g/ha, Postemergence): 9
- Redroot pigweed plant response rating ([1]; Rate 62 g/ha, Preemergence): 8
- Redroot pigweed plant response rating ([1]; Rate 125 g/ha, Postemergence): 9
- Redroot pigweed plant response rating ([1]; Rate 125 g/ha, Preemergence): 9
- Plant response rating, Redroot pigweed ([1]; Rate 250 g/ha, Postemergence): 9
- Plant response rating, Redroot pigweed [1, 15]: 10
- Plant response rating, Bedstraw ([2]; Rate 62 g/ha, Postemergence): 9
- Bedstraw plant response rating ([2]; Rate 62 g/ha): 7
- Bedstraw plant response rating ([2]; Rate 125 g/ha): 8
- Plant response rating, Bedstraw [2, 15]: 8
- Plant response rating, B. signalgrass ([3]; Rate 62 g/ha, Postemergence): 4
- B. signalgrass plant response rating ([3]; Rate 62 g/ha): 5
- Plant response rating, B. signalgrass ([3]; Rate 125 g/ha, Postemergence): 5
- B. signalgrass plant response rating ([3]; Rate 125 g/ha): 6
- Plant response rating, B. signalgrass ([3]; Rate 250 g/ha, Postemergence): 8
- Plant response rating, B. signalgrass ([3]; Rate 250 g/ha, Postemergence as printed in head r139 (second section for compounds 26-50)): 9
- Plant response rating, Rape (rape (Brassica napus); Rate 62 g/ha, Postemergence): 10
- Rape plant response rating (rape (Brassica napus); Rate 62 g/ha, Preemergence): 7
- Rape plant response rating (rape (Brassica napus); Rate 125 g/ha, Postemergence): 10
- Rape plant response rating (rape (Brassica napus); Rate 125 g/ha, Preemergence): 9
- Plant response rating, Rape (rape (Brassica napus); Rate 250 g/ha, Postemergence): 10
- Plant response rating, Rape (rape (Brassica napus); [15]): 10
- Plant response rating, Sugarbeets ([4]; Rate 62 g/ha, Postemergence): 9
- Sugarbeets plant response rating ([4]; Rate 62 g/ha, Preemergence): 7
- Sugarbeets plant response rating ([4]; Rate 125 g/ha, Postemergence): 9
- Plant response rating, Sugarbeets ([4]; Rate 125 g/ha, Preemergence): 7
- Plant response rating, Sugarbeets ([4]; Rate 250 g/ha, Postemergence): 9
- Plant response rating, Sugarbeets [4, 15]: 9
- Plant response rating, Morningglory ([5]; Rate 62 g/ha, Postemergence): 6
- Morningglory plant response rating ([5]; Rate 62 g/ha, Preemergence): 1
- Morningglory plant response rating ([5]; Rate 125 g/ha, Postemergence): 6
- Morningglory plant response rating ([5]; Rate 125 g/ha, Preemergence): 6
- Plant response rating, Morningglory ([5]; Rate 250 g/ha, Postemergence): 8
- Plant response rating, Morningglory [5, 15]: 6
- Wheat plant response rating ([6]; Rate 62 g/ha, Postemergence): 5
- Wheat plant response rating ([6]; Rate 62 g/ha, Preemergence): 2
- Wheat plant response rating ([6]; Rate 125 g/ha, Postemergence): 5
- Plant response rating, Wheat ([6]; Rate 125 g/ha, Preemergence): 3
- Plant response rating, Wheat ([6]; Rate 250 g/ha, Postemergence): 6
- Plant response rating, Wheat [6, 15]: 5
- Plant response rating, Cocklebur ([7]; Rate 62 g/ha, Postemergence): 7
- Cocklebur plant response rating ([7]; Rate 62 g/ha): 1
- Plant response rating, Cocklebur ([7]; Rate 125 g/ha, Postemergence): 8
- Cocklebur plant response rating ([7]; Rate 125 g/ha): 2
- Plant response rating, Cocklebur ([7]; Rate 250 g/ha, Postemergence): 8
- Plant response rating, Cocklebur [7, 15]: 2
- Plant response rating, Blackgrass ([8]; Rate 62 g/ha, Postemergence): 5
- Blackgrass plant response rating ([8]; Rate 62 g/ha): 3
- Plant response rating, Blackgrass ([8]; Rate 125 g/ha, Postemergence): 5
- Blackgrass plant response rating ([8]; Rate 125 g/ha): 8
- Plant response rating, Blackgrass ([8]; Rate 250 g/ha, Postemergence): 6
- Plant response rating, Blackgrass [8, 15]: 10
- Plant response rating, Velvetleaf ([9]; Rate 62 g/ha, Postemergence): 7
- Velvetleaf plant response rating ([9]; Rate 62 g/ha, Preemergence): 8
- Velvetleaf plant response rating ([9]; Rate 125 g/ha, Postemergence): 7
- Plant response rating, Velvetleaf ([9]; Rate 125 g/ha, Preemergence): 10
- Plant response rating, Velvetleaf ([9]; Rate 250 g/ha, Postemergence): 8
- Plant response rating, Velvetleaf [9, 15]: 10
- Wild oats plant response rating (wild oat (Avena fatua); Rate 62 g/ha, Postemergence): 6
- Wild oats plant response rating (wild oat (Avena fatua); Rate 62 g/ha, Preemergence): 9
- Wild oats plant response rating (wild oat (Avena fatua); Rate 125 g/ha, Postemergence): 8
- Plant response rating, Wild oats (wild oat (Avena fatua); Rate 125 g/ha, Preemergence): 9
- Plant response rating, Wild oats (wild oat (Avena fatua); Rate 250 g/ha, Postemergence): 9
- Plant response rating, Wild oats (wild oat (Avena fatua); [15]): 10
- Plant response rating, Giant foxtail ([10]; Rate 62 g/ha, Postemergence): 4
- Giant foxtail plant response rating ([10]; Rate 62 g/ha, Preemergence): 9
- Giant foxtail plant response rating ([10]; Rate 125 g/ha, Postemergence): 4
- Giant foxtail plant response rating ([10]; Rate 125 g/ha, Preemergence): 10
- Plant response rating, Giant foxtail ([10]; Rate 250 g/ha, Postemergence): 7
- Plant response rating, Giant foxtail [10, 15]: 10
- Plant response rating, Soybean (soybean (Glycine max); Rate 62 g/ha, Postemergence): 8
- Soybean plant response rating (soybean (Glycine max); Rate 62 g/ha, Preemergence): 0
- Soybean plant response rating (soybean (Glycine max); Rate 125 g/ha, Postemergence): 8
- Plant response rating, Soybean (soybean (Glycine max); Rate 125 g/ha, Preemergence): 0
- Plant response rating, Soybean (soybean (Glycine max); Rate 250 g/ha, Postemergence): 7
- Plant response rating, Soybean (soybean (Glycine max); [15]): 2
- Plant response rating, Corn (corn (Zea mays); Rate 62 g/ha, Postemergence): 3
- Corn plant response rating (corn (Zea mays); Rate 62 g/ha): 1
- Plant response rating, Corn (corn (Zea mays); Rate 125 g/ha, Postemergence): 3
- Corn plant response rating (corn (Zea mays); Rate 125 g/ha): 2
- Plant response rating, Corn (corn (Zea mays); Rate 250 g/ha, Postemergence): 4
- Plant response rating, Corn (corn (Zea mays); [15]): 3
- Plant response rating, Crabgrass ([11]; Rate 62 g/ha, Postemergence): 7
- Crabgrass plant response rating ([11]; Rate 62 g/ha): 8
- Plant response rating, Crabgrass ([11]; Rate 125 g/ha, Postemergence): 9
- Crabgrass plant response rating ([11]; Rate 125 g/ha): 10
- Plant response rating, Crabgrass ([11]; Rate 250 g/ha, Postemergence): 10
- Plant response rating, Crabgrass [11, 15]: 10
- Plant response rating, Rice (rice (Oryza sativa); [16]): 3
- Rice plant response rating (rice (Oryza sativa); [17]): 5
- Plant response rating, Rice (rice (Oryza sativa); [18]): 6
- Plant response rating, Ducksalad [12, 16]: 3
- Plant response rating, Ducksalad [12, 19]: 3
- Plant response rating, Ducksalad [12, 18]: 7
- Plant response rating, S. Flatsedge [13, 16]: 7
- S. Flatsedge plant response rating [13, 17]: 7
- Plant response rating, S. Flatsedge [13, 18]: 9
- Plant response rating, Barnyardgrass [14, 16]: 2
- Plant response rating, Barnyardgrass [14, 19]: 3
- Plant response rating, Barnyardgrass [14, 18]: 6
